According to patent US11648208B2, “Nano complex comprising a nano drug delivery matrix; and a ginseng extract or a ginsenoside isolated therefrom” (priority 2016, dated 2023):

Columns and labels:
[1] = system: Escherichia coli [ATCC 10798]; test: Antimicrobial activity, disk diffusion method on Muller-Hinton agar; assay type: cell-based; conditions: in mm
[2] = system: Salmonella enterica [ATCC 13076]; test: as above; assay type: cell-based; conditions: in mm
[3] = system: Vibrio parahaemolyticus [ATCC 33844]; test: as above; assay type: cell-based; conditions: in mm
[4] = Solubility for water (microscopic images, HPLC of supernatants); assay type: physicochemical
From the text: High water solubility advantageously enhances pharmacokinetic properties such as bioavailability, membrane permeability, therapeutic activity, etc.

[5] = system: keratinocyte (HaCaT Skin); test: Cytotoxicity by MTT assay on keratinocytes; conditions: up to a concentration of 15 μM

| SMILES | Zone of inhibition [1] | Zone of inhibition [2] | Zone of inhibition [3] | solubility for water [4] | cytotoxicity on keratinocyte cell line [5] |
| --- | --- | --- | --- | --- | --- |
| CN(C)[C@@H]1C(=O)C(C(N)=O)=C(O)[C@@]2(O)C(=O)C3=C(O)c4c(O)cccc4[C@@](C)(O)[C@H]3C[C@@H]12 [Tetracyclin, tetracycline] | 20 ± 0.1 | 30 ± 0.3 | 25 ± 0.6 | – | – |
| CC(C)=CCC[C@](C)(O[C@@H]1O[C@H](CO)[C@@H](O)[C@H](O)[C@H]1O)[C@H]1CC[C@]2(C)[C@@H]1[C@H](O)C[C@@H]1[C@@]3(C)CC[C@H](O)C(C)(C)[C@@H]3CC[C@]12C [CK, ginsenoside Compound K] | – | – | – | insoluble even at a low concentration | – |
| CC(C)=CCC[C@](C)(O)[C@H]1CC[C@]2(C)[C@@H]1[C@H](O)C[C@@H]1[C@@]3(C)CC[C@H](O[C@@H]4O[C@H](CO)[C@@H](O)[C@H](O)[C@H]4O)C(C)(C)[C@@H]3CC[C@]12C [Rh2, 20(S)-protopanaxdiol-3-O-β-D-glucopyranoside] | – | – | – | insoluble even at a low concentration | showed cytotoxicity |
